Results on 2 compounds are retold here after paper PMC6017477, “In Vitro ADME Properties of Two Novel Antimicrobial Peptoid-Based Compounds as Potential Agents against Canine Pyoderma” (Molecules : A Journal of Synthetic Chemistry and Natural …, 2018).

Structures are written as SMILES. Non-standard residues stand in square brackets, D forms with d. Residues, ends and D or L forms follow the SMILES beside them. N(1-naphthylmethyl)Gly = O=C(O)CNCc1cccc2ccccc12; N(4-MeBn)Gly = Cc1ccc(CNCC(=O)O)cc1; NBuGly = CCCCNCC(=O)O; Nlys = NCCCCNCC(=O)O

Data set [1] can be described thus: In vitro drug release from formulations, Franz cell with cellulose membrane. The class given is physicochemical. The procedure: Release was evaluated as function of the amount of peptide diffused through a cellulose membrane in the receptor of a Franz cell and detected via RP-HPLC from 0 to 8 h.
An oil-in-water cream and an ointment were prepared as described by Danish Health and Medicines Authority. For the oil-in-water cream, ingredients of the oil phase (Table 3) were melted on a water bath at 70 °C and mixed with the water phase, which was previously brought to boil and cooled down to 65–70 °C. The mixture was stirred until cooled. The ointment formulation was prepared by mixing melted Vaseline (80%) with paraffin oil (20%) on a water bath and allowed to cool under stirring. The cold method was used for preparation of the 20% (w/w) poloxamer gel, where the poloxamer powder was dissolved in purified water at 4 °C and subsequently left overnight at 2–8 °C to stabilize. All formulations were stored at 4 °C for maximum seven days before use. […] For the hydrogel, the compounds dissolved in water were mixed with the cold poloxamer solution before gelling at room temperature.
Approximately 200 µL of each formulation was filled into the donor chambers of the Franz cells via a 1 mL syringe ensuring contact with the cellulose membrane separating the donor compartment from the receptor compartment. The donor compartment was maintained at room temperature (25 ± 1 °C) and the membrane diffusion area was 1.57 cm^2. […] The receptor medium (3 mL PBS, pH 7.4) was stirred using magnetic stirring and thermo-regulated to 36 °C by a water jacket. Samples (200 μL) were collected from the receptor compartment through the sampling port over 8 h, and the withdrawn volume was replaced with an equal volume of buffer at every time point. The samples were analyzed by a Waters 600E RP-HPLC equipped with Empower 3 software (Waters Corporation, Milford, MA, USA): 30 min run time with 20 min linear gradient from 0.1% (v/v) TFA in water to 30% (v/v) ACN:H2O with 0.1% (v/v) TFA (90:10). […] Experiments were performed in duplicate.

In another data set the target is α-chymotrypsin (Bos taurus, UniProt P00766). As to the method: Solutions, concentrations, and reaction temperatures were selected according to manufacturer’s recommendations for total peptide digestion. A stock solution of 1 mM trypsin was prepared in 1 mM Tris HCl buffer solution containing 20 mM Ca^2+. […] Reaction was conducted at 37 °C for 6 h. Chymotrypsin was solubilized at 10 mg/mL in 1 mM HCl solution containing 2 mM CaCl2. […] Chymotrypsin reaction was conducted in 100 mM Tris HCl containing 10 mM CaCl2, pH 7.8 at 30 °C. […] At time 0, 3, and 6 h, 50 µL aliquots were removed for RP-HPLC analysis (see supplementary Materials, Section S3).

The subject of data set [2] is pronase. The conditions noted are these: 37 °C, RP-HPLC peak areas.
Data set [3] deals with pronase. Kind of data set: in vitro. The conditions noted are these: pronase from Streptomyces griseus, pH 8.
The subject of another data set is human red blood cells. It counts as cell-based. The conditions noted are these: 37 °C, 1 h. The procedure:
EC10 and EC50 values represent concentrations that result in 10 and 50% hemolysis, respectively. […] Briefly, two-fold serial dilutions (1 to 256 μg/mL) were incubated in PBS with a suspension of freshly withdrawn human red blood cells in PBS in 96-well v-shaped microtiter plates at 37 °C for 1 h covered with Microseal foil to avoid evaporation, and transferred to 96-well flat bottomed microtiter plates. The release of hemoglobin was detected by measuring the absorbance at 414 nm by a UV spectrophotometer (VERSAmax™ Tunable Microplate Reader, Molecular Devices, San José, CA, USA). PBS and melittin were used as negative and positive controls, respectively. All human blood samples were obtained after informed consent of the voluntary donors upon understanding of the research purposes, within local hospitals and according to local guidelines.

For data set [4] the following is noted: UV-UPLC detection limit 1 µg/L. The procedure:
The experiment was repeated twice.
The experiment was conducted in duplicate.

For data set [5] the following is noted: Day 0 versus Day 1, UV-UPLC. The procedure:
5-60% ACN in 2 minutes, 0.1% Formic Acid
(Waters Acquity UV-UPLC, C18 column, 2.1x54 mm, T=60°C, equilibration time= 0.1 min)
Table S4 Final gradient elution UV-UPLC method used for the LC-MS/MS experiments. %A and %B indicate the
percentage of the mobile phases mixed at the given time. […]

Turning to `CCCCN(CC(N)=O)C(=O)CN(CCCCN)C(=O)CN(Cc1cccc2ccccc12)C(=O)CN(CCCCN)C(=O)CN(Cc1ccc(C)cc1)C(=O)CN(Cc1cccc2ccccc12)C(=O)CN(CCCCN)C(=O)CNCCCCN` [Compound D2] (H-[Nlys][Nlys][N(1-naphthylmethyl)Gly][N(4-MeBn)Gly][Nlys][N(1-naphthylmethyl)Gly][Nlys][NBuGly]-NH2), the “release from 20% poloxamer gel after eight hours” value in data set [1] (20% poloxamer gel, 8 h) is given as “no detectable release”. For the same compound, the “release kinetics from oil-in-water cream” value in data set [1] (oil-in-water cream) was “zero-order kinetics”. Further, the “release from ointment after eight hours” value in data set [1] (ointment, 8 h) is “no detectable release”. Moreover, the “degradation after α-chymotrypsin exposure” value on α-chymotrypsin is given as “no degradation”. In addition, the “degradation after 24 h incubation with pronase” value with pronase [2] is given as “shows stability”. Moreover, the metabolised at 24 h, 0.2 µM with pronase [3] is 0.2%.

With `CCCCN(CC(=O)N[C@@H](CCCCN)C(=O)N(CC(=O)N(CC(=O)N(CC(N)=O)Cc1cccc2ccccc12)Cc1ccc(C)cc1)Cc1cccc2ccccc12)C(=O)[C@H](CCCCN)NC(=O)[C@@H](N)CCCCN` [Compound B1] (H-KK[NBuGly]K[N(1-naphthylmethyl)Gly][N(4-MeBn)Gly][N(1-naphthylmethyl)Gly]-NH2), the “degradation after α-chymotrypsin exposure” value at α-chymotrypsin is listed as “no degradation”. In addition, the “EC50, concentration resulting in 50% hemolysis of erythrocytes” value in the data set with human red blood cells worked out at 219 mg/L. In addition, the “skin penetration from 50% transcutol formulation after 24 h” value in data set [4] is given as “No penetration”. Further, the “stability in 50% transcutol in acetate buffer pH 5” value in data set [5] was “stable”. In the data set on pronase [3], this compound displayed a metabolised at 24 h, 0.2 µM of 38%.
